Entries after “also recorded” stand apart in the source; their conditions may differ.
Columns and labels:
[1] = tested on: rats with L5/L6 spinal nerve ligation (SNL); details: morphine given alone by the intrathecal route; stated as well known; cited from earlier work
[2] = tested on: rats with L5/L6 spinal nerve ligation (SNL); test: thermal hyperalgesia: paw-withdrawal latency to radiant heat, rat L5/L6 spinal nerve ligation (SNL) model; format: in vivo; details: intrathecal twice daily
Procedure: (§1) This example describes an evaluation of neuropathic pain in an animal model. An in vivo rat L5/L6 spinal nerve ligation (SNL) study is conducted as described by Kim and Chung (1992). These in vivo experiments to evaluate neuropathic pain with compounds and compositions according to the invention as prescribed herein are conducted on male Sprague-Dawley rats (Harlan; Indianapolis, Ind.) that are 200-225 g at the time of the L5/L6 surgery as described below. The rats are maintained in a climate-controlled room on a 12-h light/dark cycle (lights on at 06:00 h); food and water are provided ad libiturn. The testing is performed in accordance with accepted policies and guidelines for the handling and use of laboratory animals.
In an initial study, the effects of intrathecally delivered morphine and naloxone or morphine alone are tested after ligation of the L5 and L6 spinal nerves in rats. At one week, after a neuropathic pain syndrome of thermal hyperalgesia and tactile allodynia is stabilized, rats receive daily intrathecal injections of vehicle, morphine alone, morphine plus naloxone or naloxone alone for seven days. […] The animals first undergo intrathecal implantation of a catheter that allows for drug delivery at the lumbar (L5) spinal cord region. Animal baseline withdrawals from thermal and tactile stimuli are recorded. Animals then undergo the L5/L6 ligation surgery as described below and are tested for tactile and thermal hypersensitivities, for example, on day 3 through day 7 after the surgery, and then, for example, on day 8, animals begin the twice daily intrathecal administration of vehicle or drug substances in doses as described below. Animals are tested, for example, from about 20 to about 30 minutes after the first daily intrathecal dose for hyperalgesic and anti-allodynia effects for a total of 7 days as described below.
While under halothane anesthesia, an 8 cm length of 32 gauge tubing is inserted in the Sprague-Dawley rats to the level of the lumbar enlargement via an incision made in the atlanto-occipital membrane. The catheter is then secured to the musculature at the site of incision, which is then closed. The rats receive 4.4 mg/kg of gentamycin (intramuscular administration) as a prophylactic precaution and are allowed 5-7 days for recovery before experimentation begins, for example, before L5/L6 ligation surgery begins as described below. […] Intrathecally administered substances are dissolved in saline (to a total volume of 5 μl) prior to administration through a length of tubing connecting the intrathecal catheter with the injection syringe. Progress of the injection is determined by observing the movement of an air bubble through a calibrated length of the tubing. The catheter is cleared by flushing with 9 μl saline.
For these experiments, morphine, when given either as the sole drug or in combination with naltrexone to the rats, is administered to the rats at a dosage ranging from 1-30 micrograms, if given intrathecally. Naltrexone, when given either as the sole drug or in combination with morphine to the rats, is administered to the rats at a dosage ranging from 1 femtogram (fg) to 30 nanograms (ng) if given intrathecally. For other experiments, if given systemically, morphine, when given either as the sole drug or in combination with naltrexone to the rats, is administered to the rats at a dosage ranging from 1 mg/kg to 20 mg/kg. If given systemically, naltrexone, when given either as the sole drug or in combination with morphine to the rats, is administered to the rats at a dosage ranging from 1 femtogram to 300 nanograms. Administration of drug or vehicle to the rat is performed, for example, both on a BID or QID basis. For these experiments, morphine sulfate is purchased from Sigmia (St. Louis, Mo.) and naltrexone hydrochloride is purchased from Tocris (Ellisville, Mo.). These substances are dissolved in sterile 0.9% physiological saline from Baxter (Deerfield, Ill.).

[3] = tested on: rats with L5/L6 spinal nerve ligation (SNL); test: tactile allodynia: paw-withdrawal threshold to von Frey filaments, rat L5/L6 spinal nerve ligation (SNL) model; format: in vivo; details: naltrexone 0.1 ng alone, intrathecal twice daily; initial study
Procedure: as §1
In an initial study, the effects of intrathecally delivered morphine and naloxone or morphine alone are tested after ligation of the L5 and L6 spinal nerves in rats. […] Animal baseline withdrawals from thermal and tactile stimuli are recorded. […]
While under halothane anesthesia, an 8 cm length of 32 gauge tubing is inserted in the Sprague-Dawley rats to the level of the lumbar enlargement via an incision made in the atlanto-occipital membrane. […] Progress of the injection is determined by observing the movement of an air bubble through a calibrated length of the tubing. […]

| SMILES | antiallodynic effect [1] | antihyperalgesia ([2]; morphine 10 μg alone, day 8 after SNL (= Day 1 of administration), initial study) [%] | antihyperalgesia ([2]; morphine 10 μg alone, day 9 after SNL (= Day 2), initial study) [%] | antihyperalgesia (activity) ([2]; morphine 10 μg alone, day 11 after SNL (= Day 4), initial study) [%] | tolerance to the antihyperalgesia effect ([2]; morphine 10 μg alone, initial study (day 11 after SNL = Day 4)) | antihyperalgesia, return to baseline ([2]; morphine 10 μg alone, initial study (day 12 after SNL = Day 5)) | effect on antihyperalgesia ([2]; naltrexone 0.1 ng alone, initial study) | effect on allodynia [3] |
| --- | --- | --- | --- | --- | --- | --- | --- | --- |
| CN1CC[C@]23c4c5ccc(O)c4O[C@H]2[C@@H](O)C=C[C@H]3[C@H]1C5 [morphine] | no antiallodynic effect | 65 | 73 | 38 | tolerance to the antihyperalgesia effect by day 11; also recorded: tolerance to the anti-hyperalgesia effect by Day 4 | return to baseline by day 12; also recorded: return to baseline by day 5 |  |  |
| O=C1CC[C@@]2(O)[C@H]3Cc4ccc(O)c5c4[C@@]2(CCN3CC2CC2)[C@H]1O5 [naltrexone] |  |  |  |  |  |  | no effect | no effect |
